Data as given in patent US9113629B2, “4-amino-6-(4-substituted-phenyl)-picolinates and 6-amino-2-(4-substituted-phenyl)-pyrimidine-4-carboxylates and their use as herbicides” (DOW AGROSCIENCES LLC, priority 2013, dated 2015).

Columns and labels:
[1] = system: Key Broadleaf Weed and Crop Species; experiment: Post-emergent Test II herbicidal activity (Table 5); type: in vivo; settings: for Visual Growth Reduction (%) 14 Days After Application, ABUTH: ABUTH: velvetleaf (Abutilon theophrasti); for Visual Growth Reduction (%) 14 Days After Application, AMARE: AMARE: redroot pigweed (Amaranthus retroflexus); for Visual Growth Reduction (%) 14 Days After Application, BRSNN: BRSNN: oilseed-rape, canola (Brassica napus); for Visual Growth Reduction (%) 14 Days After Application, CHEAL: CHEAL: lambsquarters (Chenopodium album); for Visual Growth Reduction (%) 14 Days After Application, EPHHL: EPHHL: wild poinsettia (Euphorbia heterophylla); for Visual Growth Reduction (%) 14 Days After Application, HELAN: HELAN: sunflower (Helianthus annuus); for Visual Growth Reduction (%) 14 Days After Application, VIOTR: VIOTR: wild pansy (Viola tricolor)
Description: (§1) Post-emergent Test II: Seeds or nutlets of the desired test plant species were planted in Sun Gro Metro-Mix® 360 planting mixture, which typically has a pH of 6.0 to 6.8 and an organic matter content of about 30 percent, in plastic pots with a surface area of 64 square centimeters. When required to ensure good germination and healthy plants, a fungicide treatment and/or other chemical or physical treatment was applied. The plants were grown for 7-21 d in a greenhouse with an approximate 15 h photoperiod which was maintained at about 23-29° C. during the day and 22-28° C. during the night. Nutrients and water were added on a regular basis and supplemental lighting was provided with overhead metal halide 1000-Watt lamps as necessary. The plants were employed for testing when they reached the first or second true leaf stage.
(§2) A weighed amount, determined by the highest rate to be tested, of each test compound was placed in a 25 mL glass vial and was dissolved in 4 mL of a 97:3 v/v mixture of acetone and DMSO to obtain concentrated stock solutions. […] The concentrated stock solutions obtained were diluted with 20 mL of an aqueous mixture containing acetone, water, isopropyl alcohol, DMSO. Atplus 411F crop oil concentrate, and Triton® X-155 surfactant in a 48.5:39:10:1.5:1.0:0.02 v/v ratio to obtain spray solutions containing the highest application rates. Additional application rates were obtained by serial dilution of 12 mL of the high rate solution into a solution containing 2 mL of 97:3 v/v mixture of acetone and DMSO and 10 mL of an aqueous mixture containing acetone, water, isopropyl alcohol, DMSO, Atplus 411F crop oil concentrate, and Triton X-155 surfactant in a 48.5:39:10:1.5:1.0:0.02 v/v ratio to obtain ½×, ¼×, ⅛× and 1/16× rates of the high rate. Compound requirements are based upon a 12 mL application volume at a rate of 187 liters per hectare (L/ha). Formulated compounds were applied to the plant material with an overhead Mandel track sprayer equipped with 8002E nozzles calibrated to deliver 187 L/ha over an application area of 0.503 square meters at a spray height of 18 inches (43 cm) above the average plant canopy height. Control plants were sprayed in the same manner with the solvent blank.
(§3) The treated plants and control plants were placed in a greenhouse as described above and watered by subirrigation to prevent wash-off of the test compounds. After 14 d, the condition of the test plants as compared with that of the untreated plants was determined visually and scored on a scale of 0 to 100 percent where 0 corresponds to no injury and 100 corresponds to complete kill.

[2] = system: Key Grass and Sedge Weeds as well as Grass Crops; experiment: Post-emergent Test II herbicidal activity (Table 6); type: in vivo; settings: for Visual Growth Reduction (%) 14 Days After Application, CYPES: CYPES: yellow nutsedge (Cyperus esculentus); for Visual Growth Reduction (%) 14 Days After Application, DIGSA: DIGSA: crabgrass (Digitaria sanguinalis); for Visual Growth Reduction (%) 14 Days After Application, ECHCG: ECHCG: barnyardgrass (Echinochloa crus-galli); for Visual Growth Reduction (%) 14 Days After Application, ORYSA: ORYSA: rice (Oryza sativa); for Visual Growth Reduction (%) 14 Days After Application, ORYSA / Visual Growth Reduction (%) 14 Days After Application, TRZSS / Visual Growth Reduction (%) 14 Days After Application, ZEAMX: crop; for Visual Growth Reduction (%) 14 Days After Application, SETFA: SETFA: giant foxtail (Setaria faberi); for Visual Growth Reduction (%) 14 Days After Application, SORVU: SORVU: sorghum (Sorghum vulgare); for Visual Growth Reduction (%) 14 Days After Application, TRZSS: TRZSS (wheat, Triticum aestivum); for Visual Growth Reduction (%) 14 Days After Application, ZEAMX: ZEAMX: maize, corn (Zea mays)
Description: as §1, §2, §3

With COC(=O)c1nc(-c2ccc([N+](=O)[O-])cc2F)c(F)c(N)c1Cl [Compound 80] the “Visual Growth Reduction (%) 14 Days After Application, ABUTH” value ([1]; application rate 70 g ai/ha) was “G (0-29)”, the “Visual Growth Reduction (%) 14 Days After Application, ABUTH” value ([1]; application rate 140 g ai/ha) was “G (0-29)” and the “Visual Growth Reduction (%) 14 Days After Application, AMARE” value ([1]; application rate 70 g ai/ha) was “D (60-74)”. For the same molecule, the “Visual Growth Reduction (%) 14 Days After Application, AMARE” value ([1]; application rate 140 g ai/ha) was “B (85-94)”, the “Visual Growth Reduction (%) 14 Days After Application, BRSNN” value ([1]; application rate 70 g ai/ha) was “G (0-29)” and the “Visual Growth Reduction (%) 14 Days After Application, BRSNN” value ([1]; application rate 140 g ai/ha) was “G (0-29)”. For the same molecule, the “Visual Growth Reduction (%) 14 Days After Application, CHEAL” value ([1]; application rate 70 g ai/ha) was “A (95-100)”, the “Visual Growth Reduction (%) 14 Days After Application, CHEAL” value ([1]; application rate 140 g ai/ha) was “A (95-100)” and the “Visual Growth Reduction (%) 14 Days After Application, EPHHL” value ([1]; application rate 70 g ai/ha) was “C (75-84)”. The “Visual Growth Reduction (%) 14 Days After Application, EPHHL” value ([1]; application rate 140 g ai/ha) was “C (75-84)”, the “Visual Growth Reduction (%) 14 Days After Application, HELAN” value ([1]; application rate 70 g ai/ha) was “D (60-74)” and the “Visual Growth Reduction (%) 14 Days After Application, HELAN” value ([1]; application rate 140 g ai/ha) was “C (75-84)”. For the same molecule, the “Visual Growth Reduction (%) 14 Days After Application, VIOTR” value ([1]; application rate 70 g ai/ha) was “G (0-29)”, the “Visual Growth Reduction (%) 14 Days After Application, VIOTR” value ([1]; application rate 140 g ai/ha) was “G (0-29)” and the “Visual Growth Reduction (%) 14 Days After Application, CYPES” value ([2]; 70 g ai/ha) was “G (0-29)”. The “Visual Growth Reduction (%) 14 Days After Application, CYPES” value ([2]; 140 g ai/ha) was “G (0-29)”, the “Visual Growth Reduction (%) 14 Days After Application, DIGSA” value ([2]; 70 g ai/ha) was “G (0-29)” and the “Visual Growth Reduction (%) 14 Days After Application, DIGSA” value ([2]; 140 g ai/ha) was “G (0-29)”. The “Visual Growth Reduction (%) 14 Days After Application, ECHCG” value ([2]; 70 g ai/ha) was “G (0-29)”, the “Visual Growth Reduction (%) 14 Days After Application, ECHCG” value ([2]; 140 g ai/ha) was “G (0-29)” and the “Visual Growth Reduction (%) 14 Days After Application, ORYSA” value ([2]; 70 g ai/ha) was “G (0-29)”. For the same molecule, the “Visual Growth Reduction (%) 14 Days After Application, ORYSA” value ([2]; 140 g ai/ha) was “G (0-29)”, the “Visual Growth Reduction (%) 14 Days After Application, SETFA” value ([2]; 70 g ai/ha) was “G (0-29)” and the “Visual Growth Reduction (%) 14 Days After Application, SETFA” value ([2]; 140 g ai/ha) was “G (0-29)”. The “Visual Growth Reduction (%) 14 Days After Application, SORVU” value ([2]; 70 g ai/ha) was “G (0-29)”, the “Visual Growth Reduction (%) 14 Days After Application, SORVU” value ([2]; 140 g ai/ha) was “G (0-29)” and the “Visual Growth Reduction (%) 14 Days After Application, TRZSS” value ([2]; 70 g ai/ha) was “G (0-29)”. For the same molecule, the “Visual Growth Reduction (%) 14 Days After Application, TRZSS” value ([2]; 140 g ai/ha) was “G (0-29)”, the “Visual Growth Reduction (%) 14 Days After Application, ZEAMX” value ([2]; 70 g ai/ha) was “G (0-29)” and the “Visual Growth Reduction (%) 14 Days After Application, ZEAMX” value ([2]; 140 g ai/ha) was “G (0-29)”.
